From patent US6552188B2, “Unsymmetrical cyclic diamine compound” (Kowa Co., Ltd., priority 2001, dated 2003)
Where two headings read alike, the source gives them in different places.

System: adhesion of U937 cells to human umbilical venous endothelial cells (HUVEC)
Test: Inhibitory effect on cell adhesion (fluorescence-labeled U937 adhered to IL-1β- or TNFα-stimulated HUVEC)
Type: cell-based
Conditions: compound at 1 μM
Method: (Inhibitory Effect on Cell Adhesion)
This test was conducted by reference to the method of Ross et al. (J. Biol. Chem., 267, 8537-8543 (1992)). More specifically, after human umbilical venous endothelial cells (HUVEC) were cultured on a 48-well plate to confluent growth, IL-1β or TNFα was added thereto. Upon elapsed time of 5 hours after the addition, U937, which is a human monocytic/histocytic cell fluorescence-labeled with PKH2 (product of Dainippon Pharmaceutical Co., Ltd.), was added in a proportion of 1×10^6 cells per well. After the plate was left at rest at room temperature for 1 hour, unadhered U937 was washed out and lysed in 1% Triton X-100 to measure a remaining fluorescence intensity (excitation wavelength: 480 nm; measuring wavelength: 530 nm). HUVEC and U937 were cultured in EGM-2 (product of Sanko Junyaku K.K.) and 10% FCS-containing RPMI1640, respectively. Each test agent was added to HUVEC upon the addition of IL-1β or TNFα and to U937 24 hours prior to the cell adhesion test. The inhibitory activity was calculated out according to the equation [100−(C−B)/(A−B)×100(%)], wherein A is the number of U937 cells adhered to HUVEC stimulated by IL-1β or TNFα when no test agent was added, B is the number of U937 cells adhered to HUVEC not stimulated by IL-1β or TNFα when no test agent was added, and C is the number of U937 cells adhered to HUVEC stimulated by IL-1β or TNFα when the test agent was added. As control compounds, Test Compound 1 described in Japanese Patent Application Laid-Open No. 9-143075 and dilazep described in Japanese Patent Application Laid-Open No. 11-92382 were simultaneously evaluated.

[1] = U937 adhesion to HUVEC stimulated by IL-1β, read-out: Percent inhibition (%) Stimulation by IL-1β
[2] = U937 adhesion to HUVEC stimulated by TNFα, read-out: Percent inhibition (%) Stimulation by TNFα

SMILES	inhibition at 1 µM [1]	inhibition at 1 µM [2]
COc1cc(C(=O)OCCCN2CCCN(CCCOC(=O)c3cc(OC)c(OC)c(OC)c3)CC2)cc(OC)c1OC [Dilazep, dilazep, reference compound]	0%	12%
COc1cc(-c2cccc(CN3CCN(Cc4ccnc(-c5cc(OC)c(OC)c(OC)c5)c4)CC3)c2)cc(OC)c1OC [Example 18, N-[3-(3,4,5-trimethoxyphenyl)benzyl]-N′-[[2-(3,4,5-trimethoxyphenyl)pyridin-4-yl]methyl]piperazine difumarate]	37%	54%
COc1cc(-c2cccc(CN3CCCN(Cc4ccnc(-c5cc(OC)c(OC)c(OC)c5)c4)CC3)c2)cc(OC)c1OC [Example 19, N-[3-(3,4,5-trimethoxyphenyl)benzyl]-N′-[[2-(3,4,5-trimethoxyphenyl)pyridin-4-yl]methyl]homopiperazine difumarate]	33%	58%
COc1cc(-c2cc(CN3CCN(Cc4ccnc(-c5ccccc5)c4)CC3)ccn2)cc(OC)c1OC [Example 21, N-[(2-phenylpyridin-4-yl)methyl]-N′-[[2-(3,4,5-trimethoxyphenyl)pyridin-4-yl]methyl]piperazine difumarate]	44%	60%
COc1ccc(-c2cc(CN3CCN(Cc4ccnc(-c5cc(OC)c(OC)c(OC)c5)c4)CC3)ccn2)cc1 [Example 25, N-[[2-(4-methoxyphenyl)pyridin-4-yl]methyl]-N′-[[2-(3,4,5-trimethoxyphenyl)pyridin-4-yl]methyl]-piperazine difumarate]	78%	70%
COc1ccc(-c2cc(CN3CCN(Cc4ccnc(-c5cc(OC)c(OC)c(OC)c5)c4)CC3)ccn2)cc1OC [Example 26, N-[[2-(3,4-dimethoxyphenyl)pyridin-4-yl]methyl]-N′-[[2-(3,4,5-trimethoxyphenyl)pyridin-4-yl]methyl]piperazine difumarate]	75%	69%
COc1cc(-c2cc(CN3CCN(CCc4ccc5c(OC)c(OC)c(OC)cc5c4)CC3)ccn2)cc(OC)c1OC [Example 37, N-[2-(5,6,7-trimethoxynaphthalen-2-yl)ethyl]-N′-[[2-(3,4,5-trimethoxyphenyl)pyridin-4-yl]methyl]-piperazine dimaleate]	68%	56%
COc1cc(-c2cc(CN3CCN(Cc4ccc5c(OC)c(OC)c(OC)cc5c4)CC3)ccn2)cc(OC)c1OC [Example 38, N-[(5,6,7-trimethoxynaphthalen-2-yl)methyl]-N′-[[2-(3,4,5-trimethoxyphenyl)pyridin-4-yl]methyl]-piperazine dimaleate]	59%	76%
COc1cc(/C=C/CCCN2CCN(Cc3ccnc(-c4cc(OC)c(OC)c(OC)c4)c3)CC2)cc(OC)c1OC [Example 40, N-[(E)-5-(3,4,5-trimethoxyphenyl)-4-pentenyl-]-N′-[[2-(3,4,5-trimethoxyphenyl)pyridin-4-yl]methyl]piperazine difumarate]	44%	55%
COc1cc(/C=C/CCCN2CCCN(Cc3ccnc(-c4cc(OC)c(OC)c(OC)c4)c3)CC2)cc(OC)c1OC [Example 41, N-[(E)-5-(3,4,5-trimethoxyphenyl)-4-pentenyl]-N′-[[2-(3,4,5-trimethoxyphenyl)pyridin-4-yl]methyl]homopiperazine difumarate]	56%	67%
COc1cc(-c2cc(CN3CCN(CCC/C=C/c4ccc(F)cc4)CC3)ccn2)cc(OC)c1OC [Example 42, N-[(E)-5-(4-fluorophenyl)-4-pentenyl]-N′-[[2-(3,4,5-trimethoxyphenyl)pyridin-4-yl]methyl]piperazine difumarate]	54%	56%
COc1cc(-c2cccc(C(=O)N3CCN(Cc4ccnc(-c5cc(OC)c(OC)c(OC)c5)c4)CC3)c2)cc(OC)c1OC [Example 56, N-[3-(3,4,5-trimethoxyphenyl)benzoyl]-N′-[[2-(3,4,5-trimethoxyphenyl)pyridin-4-yl]methyl]piperazine]	76%	52%
